Values after ≈ are worked out from the molar mass of the structure shown.
Legend:
Format in all cases: functional
Klebsiella pneumoniae [1] = test: Antibacterial activity against Klebsiella pneumoniae ATCC 1705 assessed as inhibition of bacterial growth incubated for 24 hrs by microdilution assay
Klebsiella pneumoniae [2] = test: Antibacterial activity against Klebsiella pneumoniae ATCC 700603 assessed as inhibition of bacterial growth incubated for 24 hrs by microdilution assay
Acinetobacter baumannii = test: Antibacterial activity against Acinetobacter baumannii ATCC 19606 assessed as inhibition of bacterial growth incubated for 24 hrs by microdilution assay; conditions: ATCC 19606 = CIP 70.34 = JCM 6841
[3] = system: Stenotrophomonas maltophilia; test: Antibacterial activity against Stenotrophomonas maltophilia EM 0104assessed as inhibition of bacterial growth incubated for 24 hrs by microdilution assay
Staphylococcus aureus = test: Antibacterial activity against Staphylococcus aureus ATCC 29213 assessed as inhibition of bacterial growth incubated for 24 hrs by microdilution assay
[4] = system: Staphylococcus epidermidis; test: Antibacterial activity against Staphylococcus epidermidis ATCC 12228 assessed as inhibition of bacterial growth incubated for 24 hrs by microdilution assay
Streptococcus mutans = test: Antibacterial activity against Streptococcus mutans ATCC 25175 assessed as inhibition of bacterial growth incubated for 24 hrs by microdilution assay
Shigella flexneri = test: Antibacterial activity against Shigella flexneri CCCD S006 assessed as inhibition of bacterial growth incubated for 24 hrs by microdilution assay
Streptococcus pyogenes = test: Antibacterial activity against Streptococcus pyogenes ATCC 19615 assessed as inhibition of bacterial growth incubated for 24 hrs by microdilution assay
Enterococcus faecalis [5] = test: Antibacterial activity against Enterococcus faecalis ATCC 6569 assessed as inhibition of bacterial growth incubated for 24 hrs by microdilution assay
Salmonella typhimurium = test: Antibacterial activity against Salmonella enterica subsp. enterica serovar Typhimurium ATCC 14028 assessed as inhibition of bacterial growth incubated for 24 hrs by microdilution assay
Streptococcus sobrinus = test: Antibacterial activity against Streptococcus sobrinus ATCC 27351 assessed as inhibition of bacterial growth incubated for 24 hrs by microdilution assay
Enterococcus faecalis [6] = test: Antibacterial activity against Enterococcus faecalis ATCC 29212 assessed as inhibition of bacterial growth incubated for 24 hrs by microdilution assay
Streptococcus agalactiae = test: Antibacterial activity against Streptococcus agalactiae ATCC 13813 assessed as inhibition of bacterial growth incubated for 24 hrs by microdilution assay
Serratia marcescens = test: Antibacterial activity against Serratia marcescens ATCC 13880 assessed as inhibition of bacterial growth incubated for 24 hrs by microdilution assay; conditions: subsp. marcescens ATCC 13880
Escherichia coli [7] = test: Antibacterial activity against Escherichia coli ATCC 25922 assessed as inhibition of bacterial growth incubated for 24 hrs by microdilution assay
Enterococcus durans = test: Antibacterial activity against Enterococcus durans BIO 0114 assessed as inhibition of bacterial growth incubated for 24 hrs by microdilution assay
Proteus mirabilis = test: Antibacterial activity against Proteus mirabilis ATCC 25933 assessed as inhibition of bacterial growth incubated for 24 hrs by microdilution assay
Escherichia coli [8] = test: Antibacterial activity against Escherichia coli EAEC I 4913 assessed as inhibition of bacterial growth incubated for 24 hrs by microdilution assay
Escherichia coli [9] = test: Antibacterial activity against Escherichia coli EOL 931 assessed as inhibition of bacterial growth incubated for 24 hrs by microdilution assay
Escherichia coli [10] = test: Antibacterial activity against Escherichia coli EIEC E20851 assessed as inhibition of bacterial growth incubated for 24 hrs by microdilution assay
Escherichia coli [11] = test: Antibacterial activity against Escherichia coli EPEC E234969 assessed as inhibition of bacterial growth incubated for 24 hrs by microdilution assay
Escherichia coli [12] = test: Antibacterial activity against Escherichia coli STEC 2C1 assessed as inhibition of bacterial growth incubated for 24 hrs by microdilution assay
Escherichia coli [13] = test: Antibacterial activity against Escherichia coli EHEC 933 assessed as inhibition of bacterial growth incubated for 24 hrs by microdilution assay
Escherichia coli [14] = test: Antibacterial activity against Escherichia coli ETEC 2589093 assessed as inhibition of bacterial growth incubated for 24 hrs by microdilution assay

Molecule: COLISTIN
- MIC (Klebsiella pneumoniae [1]): 1 µg/mL
- MIC (Klebsiella pneumoniae [2]): 1 µg/mL

Molecule: CN(C)c1ccc(O)c2c1C[C@H]1C[C@H]3[C@H](N(C)C)C(O)=C(C(N)=O)C(=O)[C@@]3(O)C(O)=C1C2=O [MINOCYCLINE]
- MIC (Acinetobacter baumannii): 2 µg/mL (≈ 4.37 µM)
- MIC [3]: 2 µg/mL (≈ 4.37 µM)

Molecule: Cc1onc(-c2ccccc2)c1C(=O)N[C@@H]1C(=O)N2[C@@H]1SC(C)(C)[C@@H]2C(=O)O [OXACILLIN]
- MIC (Staphylococcus aureus): 0.25 µg/mL (≈ 0.623 µM)
- MIC [4]: 0.25 µg/mL (≈ 0.623 µM)

Molecule: CC1(C)S[C@@H]2[C@H](NC(=O)[C@H](N)c3ccccc3)C(=O)N2[C@H]1C(=O)O [AMPICILLIN]
- MIC (Streptococcus mutans): 0.5 µg/mL (≈ 1.43 µM)
- MIC (Shigella flexneri): 4 µg/mL (≈ 11.4 µM)
- MIC (Streptococcus pyogenes): 0.0625 µg/mL (≈ 0.179 µM)
- MIC (Enterococcus faecalis [5]): 4 µg/mL (≈ 11.4 µM)
- MIC (Salmonella typhimurium): 4 µg/mL (≈ 11.4 µM)
- MIC (Streptococcus sobrinus): 0.125 µg/mL (≈ 0.358 µM)
- MIC (Enterococcus faecalis [6]): 4 µg/mL (≈ 11.4 µM)
- MIC (Streptococcus agalactiae): 0.25 µg/mL (≈ 0.715 µM)
- MIC (Serratia marcescens): 4 µg/mL (≈ 11.4 µM)
- MIC (Escherichia coli [7]): 4 µg/mL (≈ 11.4 µM)
- MIC (Enterococcus durans): 4 µg/mL (≈ 11.4 µM)

Molecule: O=C(O)c1cn(C2CC2)c2cc(N3CCNCC3)c(F)cc2c1=O [CIPROFLOXACIN]
- MIC (Proteus mirabilis): 0.25 µg/mL (≈ 0.754 µM)

Molecule: C[C@@H](O)[C@H]1C(=O)N2C(C(=O)O)=C(S[C@@H]3CN[C@H](C(=O)N(C)C)C3)[C@H](C)[C@H]12 [MEROPENEM]
- MIC (Escherichia coli [8]): 0.625 µg/mL (≈ 1.63 µM)
- MIC (Escherichia coli [9]): 0.625 µg/mL (≈ 1.63 µM)
- MIC (Escherichia coli [10]): 0.625 µg/mL (≈ 1.63 µM)
- MIC (Escherichia coli [11]): 0.625 µg/mL (≈ 1.63 µM)
- MIC (Escherichia coli [12]): 0.625 µg/mL (≈ 1.63 µM)
- MIC (Escherichia coli [13]): 0.625 µg/mL (≈ 1.63 µM)
- MIC (Escherichia coli [14]): 0.625 µg/mL (≈ 1.63 µM)
